Test results reported in ChEMBL document CHEMBL1909046, “DrugMatrix in vitro pharmacology data”.
pIC50, pKi: −log10 of the molar value.

Legend:
[1] = biological target: Adenosine receptor A2a (Homo sapiens, UniProt P29274); test: DRUGMATRIX: Adenosine A2A radioligand binding (ligand: […]); type: cell membranes, HEK293, Membrane; settings: hek293; Not Active = under 50% inhibition at 10 µM
[2] = DRUGMATRIX: Interleukin IL-1 radioligand binding (ligand: [125I] interleukin 1beta); type: cell membranes, Membrane; settings: nih3t3; Not Active = under 50% inhibition at 10 µM
[3] = DRUGMATRIX: GABAA, Chloride Channel, TBOB radioligand binding (ligand: [3H] TBOB); type: cell membranes, Rattus norvegicus, Wistar, Cerebral cortex, Membrane; settings: Not Active = under 50% inhibition at 10 µM
[4] = biological target: T1, Neuropeptide Y receptor type 2 (Homo sapiens, UniProt P49146); type: cell membranes, Membrane; settings: kan-ts; further: in other assays of this panel Not Active means under 50% inhibition at 10 µM
T1 sequence (P49146 whole entry): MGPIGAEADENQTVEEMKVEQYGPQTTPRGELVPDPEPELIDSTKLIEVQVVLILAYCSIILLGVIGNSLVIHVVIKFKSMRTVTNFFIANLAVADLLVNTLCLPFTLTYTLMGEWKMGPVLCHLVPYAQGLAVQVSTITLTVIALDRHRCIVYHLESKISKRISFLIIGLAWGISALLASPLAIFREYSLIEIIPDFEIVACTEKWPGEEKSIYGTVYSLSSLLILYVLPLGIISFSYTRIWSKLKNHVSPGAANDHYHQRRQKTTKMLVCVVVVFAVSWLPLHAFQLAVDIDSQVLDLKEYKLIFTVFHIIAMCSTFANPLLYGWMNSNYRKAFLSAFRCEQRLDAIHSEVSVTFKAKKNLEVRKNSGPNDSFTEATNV

[5] = biological target: Acetylcholinesterase (Homo sapiens, UniProt P22303); test: DRUGMATRIX: Acetylcholinesterase enzyme inhibition (substrate: acetylthiocholine); type: cell-based, HEK293; settings: hek293; Not Active = under 50% inhibition at 10 µM
Chain of Acetylcholinesterase (P22303 whole entry): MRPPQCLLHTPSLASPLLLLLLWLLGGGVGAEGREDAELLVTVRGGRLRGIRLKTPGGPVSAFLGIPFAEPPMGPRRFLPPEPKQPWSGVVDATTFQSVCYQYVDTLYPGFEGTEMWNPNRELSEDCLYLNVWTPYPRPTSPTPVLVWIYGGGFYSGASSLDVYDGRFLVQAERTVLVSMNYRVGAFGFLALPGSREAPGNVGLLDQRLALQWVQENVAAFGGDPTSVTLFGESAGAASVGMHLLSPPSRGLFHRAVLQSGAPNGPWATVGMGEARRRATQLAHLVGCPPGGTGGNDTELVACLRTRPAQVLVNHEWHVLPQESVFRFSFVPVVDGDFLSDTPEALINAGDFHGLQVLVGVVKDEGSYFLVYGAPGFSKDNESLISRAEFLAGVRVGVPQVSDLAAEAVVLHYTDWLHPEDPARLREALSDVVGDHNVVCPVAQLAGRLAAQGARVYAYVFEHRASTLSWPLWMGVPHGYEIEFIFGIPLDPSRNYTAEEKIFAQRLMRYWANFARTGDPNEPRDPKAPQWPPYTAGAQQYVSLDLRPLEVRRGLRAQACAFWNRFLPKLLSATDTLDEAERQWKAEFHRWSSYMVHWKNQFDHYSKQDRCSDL

[6] = biological target: T2, 5-hydroxytryptamine receptor 2C (Homo sapiens, UniProt P28335); test: DRUGMATRIX: Serotonin (5-Hydroxytryptamine) 5-HT2C radioligand binding (ligand: [3H] Mesulergine); type: cell membranes, CHO-K1, Membrane; settings: cho-k1; Not Active = under 50% inhibition at 10 µM
T2 sequence (P28335 whole entry): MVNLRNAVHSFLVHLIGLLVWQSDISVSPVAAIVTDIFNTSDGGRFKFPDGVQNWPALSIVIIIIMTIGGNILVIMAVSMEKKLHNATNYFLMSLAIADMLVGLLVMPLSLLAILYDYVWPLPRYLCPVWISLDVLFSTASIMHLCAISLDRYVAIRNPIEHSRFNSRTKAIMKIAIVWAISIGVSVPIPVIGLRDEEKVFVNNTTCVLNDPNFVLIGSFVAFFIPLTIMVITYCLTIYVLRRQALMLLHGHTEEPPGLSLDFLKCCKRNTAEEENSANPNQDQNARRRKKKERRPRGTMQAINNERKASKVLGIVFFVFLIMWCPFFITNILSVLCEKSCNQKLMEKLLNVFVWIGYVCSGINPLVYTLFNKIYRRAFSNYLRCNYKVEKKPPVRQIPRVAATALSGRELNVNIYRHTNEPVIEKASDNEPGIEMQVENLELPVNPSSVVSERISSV

[7] = biological target: Melanocortin receptor 5 (Homo sapiens, UniProt P33032); type: cell membranes, HEK293, Membrane; settings: hek293; further: in other assays of this panel Not Active means under 50% inhibition at 10 µM
Chain of Melanocortin receptor 5 (P33032 whole entry): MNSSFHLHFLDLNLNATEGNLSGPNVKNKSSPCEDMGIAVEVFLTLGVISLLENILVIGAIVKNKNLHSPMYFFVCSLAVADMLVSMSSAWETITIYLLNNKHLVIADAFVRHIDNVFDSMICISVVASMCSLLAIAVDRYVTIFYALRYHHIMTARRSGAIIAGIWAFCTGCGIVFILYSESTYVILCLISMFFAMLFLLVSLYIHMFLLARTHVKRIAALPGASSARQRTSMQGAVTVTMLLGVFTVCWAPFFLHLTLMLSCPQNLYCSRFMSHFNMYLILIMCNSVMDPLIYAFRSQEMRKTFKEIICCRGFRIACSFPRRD

[8] = biological target: D(3) dopamine receptor (Homo sapiens, UniProt P35462); test: DRUGMATRIX: Dopamine D3 radioligand binding (ligand: [3H] Spiperone); type: cell membranes, CHO, Membrane; settings: cho
Chain of D(3) dopamine receptor (P35462 whole entry): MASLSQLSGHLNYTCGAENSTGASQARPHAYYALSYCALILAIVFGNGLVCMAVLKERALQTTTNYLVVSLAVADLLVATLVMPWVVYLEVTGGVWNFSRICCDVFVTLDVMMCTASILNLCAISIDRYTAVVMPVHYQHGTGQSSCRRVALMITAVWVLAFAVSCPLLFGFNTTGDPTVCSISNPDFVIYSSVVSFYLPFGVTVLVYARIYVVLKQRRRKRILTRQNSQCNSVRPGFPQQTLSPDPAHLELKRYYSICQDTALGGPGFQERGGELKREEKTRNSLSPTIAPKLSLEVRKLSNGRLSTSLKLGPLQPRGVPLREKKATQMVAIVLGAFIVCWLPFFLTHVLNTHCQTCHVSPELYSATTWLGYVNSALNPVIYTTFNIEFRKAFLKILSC

[9] = biological target: Delta-type opioid receptor (Homo sapiens, UniProt P41143); type: cell membranes, HEK293, Membrane; settings: hek293; further: in other assays of this panel Not Active means under 50% inhibition at 10 µM
Chain of Delta-type opioid receptor (P41143 whole entry): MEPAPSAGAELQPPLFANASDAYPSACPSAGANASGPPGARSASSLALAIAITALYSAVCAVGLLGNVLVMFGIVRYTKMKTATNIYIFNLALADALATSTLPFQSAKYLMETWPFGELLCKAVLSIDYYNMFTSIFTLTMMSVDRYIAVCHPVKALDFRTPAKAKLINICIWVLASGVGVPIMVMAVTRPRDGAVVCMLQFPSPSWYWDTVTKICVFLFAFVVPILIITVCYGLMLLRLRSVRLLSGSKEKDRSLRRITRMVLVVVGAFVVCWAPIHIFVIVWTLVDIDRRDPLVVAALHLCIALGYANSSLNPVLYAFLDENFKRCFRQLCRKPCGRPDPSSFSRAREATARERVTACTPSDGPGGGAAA

[10] = biological target: Vascular endothelial growth factor receptor 1 (Homo sapiens, UniProt P17948); type: cell-based; settings: huvec; further: in other assays of this panel Not Active means under 50% inhibition at 10 µM
Chain of Vascular endothelial growth factor receptor 1 (P17948 whole entry): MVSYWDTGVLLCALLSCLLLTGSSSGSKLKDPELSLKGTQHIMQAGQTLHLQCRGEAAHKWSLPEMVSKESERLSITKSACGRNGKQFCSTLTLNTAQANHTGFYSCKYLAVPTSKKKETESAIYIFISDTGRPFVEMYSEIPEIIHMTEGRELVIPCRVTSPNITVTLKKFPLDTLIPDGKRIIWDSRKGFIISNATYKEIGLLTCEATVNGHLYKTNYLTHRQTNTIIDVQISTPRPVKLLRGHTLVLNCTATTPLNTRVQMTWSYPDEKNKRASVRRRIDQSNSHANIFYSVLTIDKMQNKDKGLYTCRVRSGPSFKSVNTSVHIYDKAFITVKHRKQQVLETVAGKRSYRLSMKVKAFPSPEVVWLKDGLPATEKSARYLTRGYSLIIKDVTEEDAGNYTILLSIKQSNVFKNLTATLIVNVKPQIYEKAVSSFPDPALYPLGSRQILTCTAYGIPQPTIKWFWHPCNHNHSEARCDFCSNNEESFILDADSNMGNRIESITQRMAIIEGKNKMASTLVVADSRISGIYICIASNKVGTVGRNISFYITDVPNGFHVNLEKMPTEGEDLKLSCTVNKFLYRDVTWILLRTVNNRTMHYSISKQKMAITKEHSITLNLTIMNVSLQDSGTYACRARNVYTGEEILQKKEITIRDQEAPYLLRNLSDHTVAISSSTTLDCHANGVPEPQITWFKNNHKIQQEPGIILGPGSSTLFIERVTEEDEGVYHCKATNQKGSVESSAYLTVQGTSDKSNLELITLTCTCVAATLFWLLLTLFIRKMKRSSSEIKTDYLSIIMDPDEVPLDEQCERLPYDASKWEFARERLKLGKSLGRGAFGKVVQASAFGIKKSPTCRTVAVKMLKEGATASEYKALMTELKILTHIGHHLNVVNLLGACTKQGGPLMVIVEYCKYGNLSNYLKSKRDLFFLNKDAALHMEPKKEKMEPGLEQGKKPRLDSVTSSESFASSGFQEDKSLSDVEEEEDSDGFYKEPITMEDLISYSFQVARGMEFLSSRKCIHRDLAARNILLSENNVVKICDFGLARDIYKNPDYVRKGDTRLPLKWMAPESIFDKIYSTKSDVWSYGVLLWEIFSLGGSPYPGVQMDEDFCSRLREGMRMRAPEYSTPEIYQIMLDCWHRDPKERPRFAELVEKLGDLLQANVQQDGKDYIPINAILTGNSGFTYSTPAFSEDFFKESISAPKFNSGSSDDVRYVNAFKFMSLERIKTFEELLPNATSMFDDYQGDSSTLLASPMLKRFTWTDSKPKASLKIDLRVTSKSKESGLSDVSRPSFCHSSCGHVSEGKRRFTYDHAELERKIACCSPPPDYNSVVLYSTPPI

[11] = biological target: T3, 3-hydroxy-3-methylglutaryl-coenzyme A reductase (Homo sapiens, UniProt P04035); parameters: species or system Escherichia coli
T3 sequence (P04035 whole entry): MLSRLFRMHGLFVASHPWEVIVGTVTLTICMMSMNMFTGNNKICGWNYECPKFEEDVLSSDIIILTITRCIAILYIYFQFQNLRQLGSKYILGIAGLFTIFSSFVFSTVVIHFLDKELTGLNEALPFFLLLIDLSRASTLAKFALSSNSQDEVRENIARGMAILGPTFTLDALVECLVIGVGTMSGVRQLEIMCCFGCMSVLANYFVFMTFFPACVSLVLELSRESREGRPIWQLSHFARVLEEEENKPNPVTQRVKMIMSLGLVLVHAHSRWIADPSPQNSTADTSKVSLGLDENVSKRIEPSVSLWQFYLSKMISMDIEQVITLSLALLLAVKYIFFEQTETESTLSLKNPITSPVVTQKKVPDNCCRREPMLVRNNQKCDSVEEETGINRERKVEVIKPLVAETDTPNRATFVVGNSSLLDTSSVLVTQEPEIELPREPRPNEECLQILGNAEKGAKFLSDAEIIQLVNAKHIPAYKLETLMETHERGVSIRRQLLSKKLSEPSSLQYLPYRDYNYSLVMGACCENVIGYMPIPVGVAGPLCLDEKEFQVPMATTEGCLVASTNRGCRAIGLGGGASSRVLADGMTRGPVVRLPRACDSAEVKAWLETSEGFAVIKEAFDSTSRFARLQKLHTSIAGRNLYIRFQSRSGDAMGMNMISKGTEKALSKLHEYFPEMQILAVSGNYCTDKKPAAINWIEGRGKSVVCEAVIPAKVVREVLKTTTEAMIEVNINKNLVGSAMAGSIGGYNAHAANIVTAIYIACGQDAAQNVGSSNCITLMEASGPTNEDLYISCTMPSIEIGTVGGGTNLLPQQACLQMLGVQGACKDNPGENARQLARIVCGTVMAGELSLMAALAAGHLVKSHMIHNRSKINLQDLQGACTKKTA

[12] = biological target: T4, Cytochrome P450 2A6 (Homo sapiens, UniProt P11509); settings: bti-tn-5b1-4; further: in other assays of this panel Not Active means under 50% inhibition at 10 µM
T4 sequence (P11509 whole entry): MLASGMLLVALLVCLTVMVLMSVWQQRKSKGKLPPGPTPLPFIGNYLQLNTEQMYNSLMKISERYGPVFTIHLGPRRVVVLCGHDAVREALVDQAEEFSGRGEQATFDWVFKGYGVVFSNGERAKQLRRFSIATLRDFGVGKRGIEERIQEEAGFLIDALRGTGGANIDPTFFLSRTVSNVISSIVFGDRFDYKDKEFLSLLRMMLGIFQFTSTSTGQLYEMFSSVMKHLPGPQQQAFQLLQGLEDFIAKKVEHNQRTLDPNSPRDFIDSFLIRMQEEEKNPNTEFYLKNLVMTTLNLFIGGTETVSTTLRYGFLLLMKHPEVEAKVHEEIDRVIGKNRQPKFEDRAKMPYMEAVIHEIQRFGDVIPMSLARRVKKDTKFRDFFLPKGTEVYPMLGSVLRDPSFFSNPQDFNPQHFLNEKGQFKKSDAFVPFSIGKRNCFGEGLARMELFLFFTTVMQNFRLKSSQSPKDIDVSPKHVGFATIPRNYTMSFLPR

Chain of Adenosine receptor A2a (P29274 whole entry): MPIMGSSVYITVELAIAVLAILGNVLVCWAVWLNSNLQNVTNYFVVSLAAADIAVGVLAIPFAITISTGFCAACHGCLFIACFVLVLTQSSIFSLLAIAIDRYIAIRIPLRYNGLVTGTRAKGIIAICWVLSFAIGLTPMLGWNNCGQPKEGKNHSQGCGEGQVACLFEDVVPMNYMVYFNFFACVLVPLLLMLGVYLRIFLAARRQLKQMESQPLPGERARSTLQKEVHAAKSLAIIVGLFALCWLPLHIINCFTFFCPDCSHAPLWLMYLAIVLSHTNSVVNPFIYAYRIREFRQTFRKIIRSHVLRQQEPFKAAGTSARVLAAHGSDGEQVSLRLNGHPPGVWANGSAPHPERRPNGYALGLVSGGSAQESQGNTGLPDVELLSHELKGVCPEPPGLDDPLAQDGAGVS

Molecule | IC50 [1] | IC50 [2] | Ki [2] | IC50 [3] | Ki [3] | IC50 [4] | IC50 [5] | IC50 [6] | IC50 [7] | IC50 [8] | IC50 [9] | IC50 [10] | IC50 [11] | IC50 [12] | Ki [12] | further results
Nc1ccc(S(=O)(=O)Nc2ccnn2-c2ccccc2)cc1 [SULFAPHENAZOLE] | Not Active | Not Active | Not Active | Not Active | Not Active | Not Active | Not Active | Not Active | Not Active | Not Active | Not Active | Not Active | Not Active | Not Active | Not Active | 
CC1CN(c2cc3c(cc2F)c(=O)c(C(=O)O)cn3-c2ccc(F)cc2F)CCN1 (centres undefined) [TEMAFLOXACIN] | Not Active | Not Active | Not Active | Not Active | Not Active | Not Active | Not Active | Not Active | Not Active | Not Active | Not Active | Not Active | Not Active | Not Active | Not Active | 
IVERMECTIN | Not Active | Not Active | Not Active | Not Active | Not Active | Not Active | Not Active | Not Active | Not Active |  | Not Active | Not Active | Not Active | Not Active | Not Active | Ki [1]: Not Active; Ki [4]: Not Active; Ki [5]: Not Active; Ki [6]: Not Active; Ki [7]: Not Active; pIC50 ([8]; read-out: IC50): 5.66; pKi ([8]; read-out: Ki): 6.12; Ki [9]: Not Active; Ki [10]: Not Active; Ki [11]: Not Active
CN[C@H](CC(C)C)C(=O)N[C@H]1C(=O)N[C@@H](CC(N)=O)C(=O)N[C@H]2C(=O)N[C@H]3C(=O)N[C@H](C(=O)N[C@H](C(=O)O)c4cc(O)cc(O)c4-c4cc3ccc4O)[C@H](O)c3ccc(c(Cl)c3)Oc3cc2cc(c3O[C@@H]2O[C@H](CO)[C@@H](O)[C@H](O)[C@H]2O[C@H]2C[C@](C)(N)[C@H](O)[C@H](C)O2)Oc2ccc(cc2Cl)[C@H]1O [VANCOMYCIN] | Not Active | Not Active | Not Active | Not Active | Not Active | Not Active | Not Active | Not Active | Not Active | Not Active | Not Active | Not Active | Not Active | Not Active | Not Active | 
CC(=O)S[C@@H]1CC2=CC(=O)CC[C@]2(C)[C@H]2CC[C@@]3(C)[C@@H](CC[C@@]34CCC(=O)O4)[C@H]12 [SPIRONOLACTONE] | Not Active | Not Active | Not Active | Not Active | Not Active | Not Active | Not Active | Not Active | Not Active | Not Active | Not Active | Not Active | Not Active | Not Active | Not Active | 
COc1cc(C(=O)NC2CCCNC2)cc(OC)c1OC (centres undefined) [TROXIPIDE] | Not Active | Not Active | Not Active | Not Active | Not Active | Not Active | Not Active | Not Active | Not Active | Not Active | Not Active | Not Active | Not Active | Not Active | Not Active | 
Cc1ccc(C(=O)C(C)CN2CCCCC2)cc1 (centres undefined) [TOLPERISONE] | Not Active | Not Active | Not Active | Not Active | Not Active | Not Active | Not Active | Not Active | Not Active | Not Active | Not Active | Not Active | Not Active | Not Active | Not Active | 
NC(=O)c1ccccc1O [SALICYLAMIDE] | Not Active | Not Active | Not Active | Not Active | Not Active | Not Active | Not Active | Not Active | Not Active | Not Active | Not Active | Not Active | Not Active | Not Active | Not Active | 
